From publication PMC11051198, “Synthesis and Late-Stage Modification of (−)-Doliculide Derivatives Using Matteson’s Homologation Approach” (Marine Drugs, 2024)

Legend:
Assay type in all cases: cell-based
CHO-K1 = test: MTT cytotoxicity assay, CHO-K1; settings: CHO-K1 mutagenized Chinese hamster ovary, 5 d incubation, 37 °C, 5% CO2, DMEM + 10% FBS, mean ± SD of two independent measurements
Protocol: (§1) The cell cultures were cultivated at 37 °C under an atmosphere containing 5% CO2. Before usage, Dulbecco’s Modified Eagle Medium (DMEM) from Gibco (Thermo Fisher Scientific) was supplemented with 10% fetal bovine serum (FBS) from Gibco. Cells were used between passage 5 and 30 and were split separately for at least two passages to obtain biological repeats. Cells were washed with PBS and 0.5 mL trypsin was added before treatment. Cells were then incubated for 5 min before adding 10 mL medium containing 10% FBS. Per well, 120 µL cell suspension 5 × 10^4 cells/mL (CHO-K1, HCT-116. U-2 OS, KB3.1) or 1 × 10^5 cells/mL (HepG2) cells were seeded in transparent 96-well cell bind plate and incubated for 2 h at 37 °C and an atmosphere of 5% CO2. Each compound was tested in a serial dilution so that the starting concentration is 111 µg/mL, which is diluted by 1:3 as well as the internal solvent control prepared in DMEM with 10% FBS. After 5 d incubation at 37 °C and an atmosphere of 5% CO2, 20 μL of 5 mg/mL MTT (thiazolyl blue tetrazolium bromide) in PBS was added per well and cells were further incubated until coloration of the cells. The medium was then discarded and 100 μL 2-propanol/10 N HCl (250:1) added to the cells. The plates were analyzed by measuring the absorbance at 570 nm and 630 nm as reference using a microplate reader Infinite® 200 Pro from Tecan (Männedorf, Switzerland). Absorption is then converted to cell viability expressed as percentage relative to the respective solvent control. The calculated percentage of growth inhibition were determined by sigmoidal curve fitting using GraphPad (Boston, MA, USA) Prism software (version 10.0.2). Two independent measurements were generated for mean and standard deviation.

HepG2 = test: MTT cytotoxicity assay, HepG2; settings: HepG2 human hepatocellular carcinoma, 5 d incubation, 37 °C, 5% CO2, DMEM + 10% FBS, mean ± SD of two independent measurements
Protocol: as §1

U-2 OS = test: MTT cytotoxicity assay, U-2 OS; settings: U-2 OS human bone osteosarcoma, 5 d incubation, 37 °C, 5% CO2, DMEM + 10% FBS, mean ± SD of two independent measurements
Protocol: as §1

HCT-116 = test: MTT cytotoxicity assay, HCT-116; settings: HCT-116 human colon carcinoma, 5 d incubation, 37 °C, 5% CO2, DMEM + 10% FBS, mean ± SD of two independent measurements
Protocol: as §1

KB3.1 = test: MTT cytotoxicity assay, KB3.1; settings: KB3.1 human epidermoid carcinoma cell line, 5 d incubation, 37 °C, 5% CO2, DMEM + 10% FBS, mean ± SD of two independent measurements
Protocol: as §1

[1] = ≤ values: individual results varied widely, given as a range

Structure (SMILES)	IC50 (CHO-K1) [nM]	IC50 (HepG2) [nM]	IC50 (U-2 OS; [1]) [nM]	IC50 (HCT-116; [1]) [nM]	IC50 (KB3.1; [1]) [nM]	IC50 (U-2 OS) [nM]	IC50 (HCT-116) [nM]	IC50 (KB3.1) [nM]
C[C@H]1C[C@@H](C)[C@@H](O)C[C@@H](CC#C[Si](C)(C)C)OC(=O)[C@@H](Cc2ccc(O)c(I)c2)N(C)C(=O)CNC(=O)[C@@H](C)C1 [Compound 8a, (3R,9S,11S,13R,14S,16R)-14-Hydroxy-3-(4-hydroxy-3-iodobenzyl)-4,9,11,13-tetramethyl-16-[3-(trimethylsilyl)prop-2-yn-1-yl]-1-oxa-4,7-diazacyclohexadecane-2,5,8-trione]	380 ± 44	20000 ± 4500	336 ± 146	8 ± 7.3	≤ 115			
C=CC[C@@H]1C[C@H](O)[C@H](C)C[C@H](C)C[C@H](C)C(=O)NCC(=O)N(C)[C@H](Cc2ccc(O)c(I)c2)C(=O)O1 [Compound 8b, (3R,9S,11S,13R,14S,16R)-16-Allyl-14-hydroxy-3-(4-hydroxy-3-iodobenzyl)-4,9,11,13-tetramethyl-1-oxa-4,7-diazacyclohexadecane-2,5,8-trione]	264 ± 13	> 60200	521 ± 488	16 ± 8	103 ± 65			
C#CC[C@@H]1C[C@H](O)[C@H](C)C[C@H](C)C[C@H](C)C(=O)NCC(=O)N(C)[C@H](Cc2ccc(O)c(I)c2)C(=O)O1 [Compound 8c, (3R,9S,11S,13R,14S,16R)-14-Hydroxy-3-(4-hydroxy-3-iodobenzyl)-4,9,11,13-tetramethyl-16-(prop-2-yn-1-yl)-1-oxa-4,7-diazacyclohexadecane-2,5,8-trione]	474 ± 147	147 ± 65	49 ± 33	65 ± 16	114 ± 49			
C[C@H]1C[C@@H](C)[C@@H](O)C[C@@H](Cc2cn(Cc3ccccc3)nn2)OC(=O)[C@@H](Cc2ccc(O)c(I)c2)N(C)C(=O)CNC(=O)[C@@H](C)C1 [Compound 9a, (3R,9S,11S,13R,14S,16R)-16-[(1-Benzyl-1H-1,2,3-triazol-4-yl)methyl]-14-hydroxy-3-(4-hydroxy-3-iodobenzyl)-4,9,11,13-tetramethyl-1-oxa-4,7-diazacyclohexadecane-2,5,8-trione]	24 ± 9	> 49600	≤ 80	309 ± 81	47 ± 13			
CCCCCn1cc(C[C@@H]2C[C@H](O)[C@H](C)C[C@H](C)C[C@H](C)C(=O)NCC(=O)N(C)[C@H](Cc3ccc(O)c(I)c3)C(=O)O2)nn1 [Compound 9b, (3R,9S,11S,13R,14S,16R)-14-hydroxy-3-(4-hydroxy-3-iodobenzyl)-4,9,11,13-tetramethyl-16-((1-pentyl-1H-1,2,3-triazol-4-yl)methyl)-1-oxa-4,7-diazacyclohexadecane-2,5,8-trione]	69 ± 12		≤ 110	≤ 110	41 ± 14			
C[C@H]1C[C@@H](C)[C@@H](O)C[C@@H](Cc2cn(CCOCCOCC(=O)O)nn2)OC(=O)[C@@H](Cc2ccc(O)c(I)c2)N(C)C(=O)CNC(=O)[C@@H](C)C1 [Compound 9d, 2-{2-[2-(4-{[(3R,9S,11S,13R,14S,16R)-14-Hydroxy-3-(4-hydroxy-3-iodobenzyl)-4,9,11,13-tetramethyl-2,5,8-trioxo-1-oxa-4,7-diazacyclohexadecan-16-yl]methyl}-1H-1,2,3-triazol-1-yl)ethoxy]ethoxy}acetic Acid]	> 46200	> 46200				> 46200	> 46200	> 46200
C[C@H]1C[C@@H](C)[C@@H](O)C[C@@H](Cc2cn(CCOCCOCCO)nn2)OC(=O)[C@@H](Cc2ccc(O)c(I)c2)N(C)C(=O)CNC(=O)[C@@H](C)C1 [Compound 9e, (3R,9S,11S,13R,14S,16R)-14-Hydroxy-3-(4-hydroxy-3-iodobenzyl)-16-((1-(2-(2-(2-hydroxyethoxy)ethoxy)ethyl)-1H-1,2,3-triazol-4-yl)methyl)-4,9,11,13-tetramethyl-1-oxa-4,7-diazacyclohexadecane-2,5,8-trione]	> 47000	> 47000				23000 ± 4400	8550 ± 1140	10500 ± 300
C[C@H]1C[C@@H](C)[C@@H](O)C[C@@H](Cc2cn(CCOCCOCCNC(=O)OC(C)(C)C)nn2)OC(=O)[C@@H](Cc2ccc(O)c(I)c2)N(C)C(=O)CNC(=O)[C@@H](C)C1 [Compound 9f, tert-Butyl (2-{2-[2-(4-{[(3R,9S,11S,13R,14S,16R)-14-hydroxy-3-(4-hydroxy-3-iodobenzyl)-4,9,11,13-tetramethyl-2,5,8-trioxo-1-oxa-4,7-diazacyclohexadecan-16-yl]methyl}-1H-1,2,3-triazol-1-yl)ethoxy]ethoxy}ethyl)carbamate]	6380 ± 2810	> 41700		86 ± 79	722 ± 180	1560 ± 670		
C[C@H]1C[C@@H](C)[C@@H](O)C[C@@H](Cc2cn(CCOCCOCCOCCNC(=O)OC(C)(C)C)nn2)OC(=O)[C@@H](Cc2ccc(O)c(I)c2)N(C)C(=O)CNC(=O)[C@@H](C)C1 [Compound 9g, tert-Butyl [2-(2-{2-[2-(4-{[(3R,9S,11S,13R,14S,16R)-14-hydroxy-3-(4-hydroxy-3-iodobenzyl)-4,9,11,13-tetramethyl-2,5,8-trioxo-1-oxa-4,7-diazacyclohexadecan-16-yl]methyl}-1H-1,2,3-triazol-1-yl)ethoxy]ethoxy}ethoxy)ethyl]carbamate]	12900 ± 3000	> 39700		432 ± 140		2940 ± 1750		3290 ± 1390
C[C@H]1C[C@@H](C)[C@@H](O)C[C@@H](CC#Cc2ccccc2)OC(=O)[C@@H](Cc2ccc(O)c(I)c2)N(C)C(=O)CNC(=O)[C@@H](C)C1 [Compound 10a, (3R,9S,11S,13R,14S,16R)-14-Hydroxy-3-(4-hydroxy-3-iodobenzyl)-4,9,11,13-tetramethyl-16-(3-phenylprop-2-yn-1-yl)-1-oxa-4,7-diazacyclohexadecane-2,5,8-trione]	247 ± 145	15500 ± 300	683 ± 87	14.5 ± 0.6	49 ± 29			
COc1ccc(C#CC[C@@H]2C[C@H](O)[C@H](C)C[C@H](C)C[C@H](C)C(=O)NCC(=O)N(C)[C@H](Cc3ccc(O)c(I)c3)C(=O)O2)cc1 [Compound 10b, (3R,9S,11S,13R,14S,16R)-14-Hydroxy-3-(4-hydroxy-3-iodobenzyl)-16-[3-(4-methoxyphenyl)prop-2-yn-1-yl]-4,9,11,13-tetramethyl-1-oxa-4,7-diazacyclohexadecane-2,5,8-trione]	1460 ± 280	> 51500		153 ± 56		1880 ± 110		459000 ± 111000
C[C@H]1C[C@@H](C)[C@@H](O)C[C@@H](CC#Cc2ccc([N+](=O)[O-])cc2)OC(=O)[C@@H](Cc2ccc(O)c(I)c2)N(C)C(=O)CNC(=O)[C@@H](C)C1 [Compound 10c, (3R,9S,11S,13R,14S,16R)-14-Hydroxy-3-(4-hydroxy-3-iodobenzyl)-4,9,11,13-tetramethyl-16-[3-(4-nitrophenyl)prop-2-yn-1-yl]-1-oxa-4,7-diazacyclohexadecane-2,5,8-trione]	586 ± 205	> 50400	491 ± 95	10 ± 3	98 ± 41			
CCCCSCCC[C@@H]1C[C@H](O)[C@H](C)C[C@H](C)C[C@H](C)C(=O)NCC(=O)N(C)[C@H](Cc2ccc(O)c(I)c2)C(=O)O1 [Compound 11b, (3R,9S,11S,13R,14S,16R)-16-[3-(Butylthio)propyl]-14-hydroxy-3-(4-hydroxy-3-iodobenzyl)-4,9,11,13-tetramethyl-1-oxa-4,7-diazacyclohexadecane-2,5,8-trione]	142 ± 85	> 52500	238 ± 10		28 ± 3		> 52500	
C[C@H]1C[C@@H](C)[C@@H](O)C[C@@H](CCCSCc2ccccc2)OC(=O)[C@@H](Cc2ccc(O)c(I)c2)N(C)C(=O)CNC(=O)[C@@H](C)C1 [Compound 11c, (3R,9S,11S,13R,14S,16R)-16-[3-(Benzylthio)propyl]-14-hydroxy-3-(4-hydroxy-3-iodobenzyl)-4,9,11,13-tetramethyl-1-oxa-4,7-diazacyclohexadecane-2,5,8-trione]	391 ± 122	> 50000	582 ± 68	10.8 ± 1.2	37 ± 1			
